From US9247750B2, “Polyenylcyclopropanecarboxylic esters with high insecticidal activity” (Endura S.P.A., priority 2007, dated 2016)

Columns and labels:
Assay type in all cases: in vivo
Blattella germanica = assay: Effectiveness of residual insecticide on surfaces (glazed tiles) against cockroaches (Example 6); conditions: 50 mg/m^2 on glazed tiles; for percentage knock-down after 24 hours: 24 h exposure
Experimental: Solutions of the compound of example 3 in acetone and, for comparison, of the reference compounds Transfluthrin and Metofluthrin were applied from a distance of 12 cm onto glazed tiles (Ostara model, 15×15 cm=225 cm^2) by means of a suitable glass sprayer, so as to obtain an applied amount of pure compound equal to 50 mg/m^2. After treatment the tiles were transferred to and maintained in a closed test room at controlled temperature and humidity (24-25° C., RH 50-60%). Glass rings (H 5.5 cm×Ø 9.5 cm), with their internal surface treated with talc, and each containing 5 cockroaches, were positioned at the centre of the tiles for each of the assessment times of 24 hours, 3, 7, 10 and 14 days following treatment. For each assessment day, the insects were maintained on the surface for 24 hours and the time (hours, minutes) necessary to attain 100% knock-down followed by death, or percentage knock-down at the end of 24 hours, were recorded.

Aedes aegypti [1] = assay: Insecticide effectiveness in the vapour phase against mosquitoes, impregnated paper unit in 20 m^3 room (Example 9); conditions: 5 mg/unit; for % mortality 24 h: 24th hour from start of test; for % Knock-down 8 h: at end of 8th hour; for Knock-down time KT10 / Knock-down time KT50 / Knock-down time KT90: average of 3 cages
Experimental: (§1) Test units consisting of a paper support 20 cm×10 cm in size were impregnated with the compound of examples 3, 7 and 8 and, for comparative purposes, with the reference compounds transfluthrin and metofluthrin, at an amount of 5.00 mg/unit for each compound (pure). Using a common laboratory stand, the test unit was placed at a height of about 30 cm from the ground along one side of a 20 m^3 room (L 3.00 m×D 2.49 m×H 2.69 m). In order to homogenize the insecticidal air within the room, a small electric fan was placed on the floor diagonal to the surface of the unit, in the nearest corner at a distance of about 50 cm from the unit. Three metal cages (L 8.4 cm×Ø 8.0 cm×mesh 1.0 mm) for every mosquito species, each containing 20 3-4 day old individuals of mixed sex, were placed along the other three sides of the room, at a height of 1.80 m from the ground and at a distance of 0.45 m from the respective walls. During the test the room was kept closed and temperature and humidity were controlled (T 23-26° C., RH 49-61%). The fan was switched on and left on for 8 continuous hours. The times needed to reach 10%, 50% and 90% insect knock-down (KT10, KT50 and KT90, respectively) were recorded.
(§2) Every 2 hours and up to the 6th hour after the fan was switched on, new cages were introduced containing insects (set of 3 cages for each species).
(§3) At the end of the 8th hour, the percentage of insects knocked down in all the cages was determined, then the insects were removed from the room and transferred into an uncontaminated atmosphere within closed containers containing a sugary solution. The percentage mortality was recorded at the 24th hour from the start of the test.
(§4) The results obtained are summarized in tables 1 and 2 and the data are averages for the 3 cages.

Culex quinquefasciatus [2] = assay: as above; conditions: 5 mg/unit; for % mortality 24 h: 24th hour from start of test; for % Knock-down 8 h: at end of 8th hour; for Knock-down time KT10 / Knock-down time KT50 / Knock-down time KT90: average of 3 cages
Experimental: as §1, §2, §3, §4

Aedes aegypti [3] = assay: Insecticide effectiveness in the vapour phase against mosquitoes, impregnated paper unit in 20 m^3 room (Example 5); conditions: 5 mg/unit; for % mortality 24 h: 24th hour from start of test; for % Knock-down 8 h: at end of 8th hour; for Knock-down time KT10 / Knock-down time KT50 / Knock-down time KT90: average of 3 cages
Experimental: (§5) Test units consisting of a paper support 20 cm×10 cm in size were impregnated with the compound of example 3 and, for comparative purposes, with the reference compounds transfluthrin and metofluthrin, at an amount of 5.00 mg/unit for each compound (pure).
(§6) Using a common laboratory stand, the test unit was placed at a height of about 30 cm from the ground along one side of a 20 m^3 room (L 3.00 m×D 2.49 m×H 2.69 m). In order to homogenize the insecticidal air within the room, a small electric fan was placed on the floor diagonal to the surface of the unit, in the is nearest corner at a distance of about 50 cm from the unit. Three metal cages (L 8.4 cm×Ø 8.0 cm×mesh 1.0 mm) for every mosquito species, each containing 20 3-4 day old individuals of mixed sex, were placed along the other three sides of the room, at a height of 1.80 m from the ground and at a distance of 0.45 m from the respective walls. During the test the room was kept closed and temperature and humidity were controlled (T 23-26° C., RH 49-61%).
(§7) The fan was switched on and left on for 8 continuous hours. The times needed to reach 10%, 50% and 90% insect knock-down (KT10, KT50 and KT90, respectively) were recorded.
as §2, §3, §4

Culex quinquefasciatus [4] = assay: as above; conditions: 5 mg/unit; for % mortality 24 h: 24th hour from start of test; for % Knock-down 8 h: at end of 8th hour; for Knock-down time KT10 / Knock-down time KT50 / Knock-down time KT90: average of 3 cages
Experimental: as §5, §6, §7, §2, §3, §4

## CC=CC1C(C(=O)OCc2c(F)c(F)c(COC)c(F)c2F)C1(C)C (centres unmarked) [Metofluthrin, (2,3,5,6-tetrafluoro-4-methoxy-methyl)benzyl-2,2-dimethyl-3-prop-1-enylcyclopropanecarboxylate]
Blattella germanica; 1 day after treatment
  percentage knock-down after 24 hours: 80%*)
Blattella germanica; 1 day after treatment, one of the 5 individuals recovered within 24 hours
  Time to reach 100% knock-down: 2 h (24 h
Blattella germanica; 3 days after treatment
  percentage knock-down after 24 hours: 24 h 40%
Blattella germanica; 7 days after treatment
  percentage knock-down after 24 hours: 24 h 0%
Blattella germanica; 10 days after treatment
  percentage knock-down after 24 hours: 24 h 0%
Aedes aegypti [1]; insect exposure after 0 hours
  % mortality 24 h: 100%
  % Knock-down 8 h: 100%
  Knock-down time KT10: 16 min
  Knock-down time KT50: 25 min
  Knock-down time KT90: 34 min
Aedes aegypti [1]; insect exposure after 2 hours
  % mortality 24 h: 100%
  % Knock-down 8 h: 100%
  Knock-down time KT10: 7 min
  Knock-down time KT50: 9 min
  Knock-down time KT90: 15 min
Aedes aegypti [1]; insect exposure after 4 hours
  % mortality 24 h: 100%
  % Knock-down 8 h: 100%
  Knock-down time KT10: 6 min
  Knock-down time KT50: 8 min
  Knock-down time KT90: 14 min
Culex quinquefasciatus [2]; insect exposure after 0 hours
  % mortality 24 h: 100%
  % Knock-down 8 h: 100%
  Knock-down time KT10: 22 min
  Knock-down time KT50: 32 min
  Knock-down time KT90: 36 min
Culex quinquefasciatus [2]; insect exposure after 2 hours
  % mortality 24 h: 100%
  % Knock-down 8 h: 100%
  Knock-down time KT10: 11 min
  Knock-down time KT50: 16 min
  Knock-down time KT90: 22 min
Culex quinquefasciatus [2]; insect exposure after 4 hours
  % mortality 24 h: 100%
  % Knock-down 8 h: 100%
  Knock-down time KT10: 10 min
  Knock-down time KT50: 14 min
  Knock-down time KT90: 20 min
Aedes aegypti [3]; insect exposure after 0 hours
  % mortality 24 h: 100%
  % Knock-down 8 h: 100%
  Knock-down time KT10: 23 min
  Knock-down time KT50: 30 min
  Knock-down time KT90: 39 min
Aedes aegypti [3]; insect exposure after 2 hours
  % mortality 24 h: 100%
  % Knock-down 8 h: 100%
  Knock-down time KT10: 7 min
  Knock-down time KT50: 9 min
  Knock-down time KT90: 15 min
Aedes aegypti [3]; insect exposure after 4 hours
  % mortality 24 h: 100%
  % Knock-down 8 h: 100%
  Knock-down time KT10: 6 min
  Knock-down time KT50: 8 min
  Knock-down time KT90: 14 min
Culex quinquefasciatus [4]; insect exposure after 0 hours
  % mortality 24 h: 100%
  % Knock-down 8 h: 100%
  Knock-down time KT10: 26 min
  Knock-down time KT50: 30 min
  Knock-down time KT90: 35 min
Culex quinquefasciatus [4]; insect exposure after 2 hours
  % mortality 24 h: 100%
  % Knock-down 8 h: 100%
  Knock-down time KT10: 11 min
  Knock-down time KT50: 16 min
  Knock-down time KT90: 24 min
Culex quinquefasciatus [4]; insect exposure after 4 hours
  % mortality 24 h: 100%
  % Knock-down 8 h: 100%
  Knock-down time KT10: 11 min
  Knock-down time KT50: 16 min
  Knock-down time KT90: 20 min
